Reference: patent EP2679243B1, “Co-precipitate of one or more stilbene polyphenols in lamellar anionic solids, it's applications and related preparation method” (Fioretti, Bernard, priority 2012, dated 2014)
≈ marks a conversion by molar mass, not a printed value.

Legend:
[1] = Photostability under irradiation at 340 nm (absorption spectra); type: physicochemical
Description: • Figure 1. Characterization of the product obtained from the co-precipitation process according to the invention described in example 1. […] Figure 1B. The thermogravimetric analysis defines weight percentage of resveratrol load in co-precipitate. […] Characterization of the product obtained from the co-precipitation process according to the invention described in example 2. Figure 2A. […] Figure 2B. The thermogravimetric analysis to calculate weight percentage of resveratrol in co-precipitate. […] Figure 2C. […] Samples are prepared in aqueous solution. […] Column Luna Phenomenex RP-18, eluents A)-H2O + TFA 0.1% e B- MeCN (Gradient: 5min: 5% B; 20 min: until 95% B; 5 min: up to 5% B, Temperature: 25°C, flow speed of eluent 1.0 mL/min, detector: DAD (190-400 nm)) • Figure 3. […] A) Absorption spectrum of crystalline resveratrol. […] The dissolution rate is measured to acid gastric buffer (pH 1.2, XII italian FU) in non-sink condition at a temperature of 37°C and while being agitated (agitation 60 rotation/minute).
Solution 1is prepared by dissolving 258.3 mg of AlCl3 * 6H2O and 508.3 mg of MgCl2 * 6H2O in 18 mL of deionized water. […] A hydro-alcoholic solution is obtained by mixing the first and second solution and keeping it in a dark environment, agitated and in nitrogen flow. To this solution, under nitrogen flow, it has to be added 10 ml of NaOH solution 1 M up to a pH between 10-11. […]

[2] = Solubility in gastric fluid (indirect weighing and UV dosage); type: physicochemical; settings: gastric fluid (FU; fluid mimicking the gastric fluid), simulated gastric fluid, thermodynamic from solid, gastric fluid pH 1.2, FU
Method: Solution 1is prepared by dissolving 258.3 mg of AlCl3 * 6H2O and 508.3 mg of MgCl2 * 6H2O in 18 mL of deionized water. […] A hydro-alcoholic solution is obtained by mixing the first and second solution and keeping it in a dark environment, agitated and in nitrogen flow. To this solution, under nitrogen flow, it has to be added 10 ml of NaOH solution 1 M up to a pH between 10-11. Solid precipitated is left to be digested for 15 minutes and then it is separated through centrifugation. The solid recovered, has to be washed 2 times using 30 ml of deionized water and finally using 20 ml of ethanol. Finally the solid recovered is dryed out at 50 °C. […] Width of signals is due to low crystallinity of hydrotalcitic matrix that can be ascribed to an amorphous phase. […] The presence of resveratrol is confirmed by DTA signal (black trace) in which it is possible to observe a sequence of exhotermic processes due to resveratrol degradation. […] Little changes are observed after a 120 minute irradiation at 340 nm (Figure 3C. black trace: not irradiated; red trace: irradiated). […] Dissolution tests in fluids mimicking the gastric fluid (pH: 1-2, FU) at 37 °C, stirred and characterized by a blade rotation speed equal to 60 rotation/min in not sink conditions.

[3] = cited from earlier work
[4] = cited from earlier work; remark: listed apart in the source
[5] = compared to resveratrol; cited from earlier work

| Molecule | photostability ([1]; aqueous solution, 30 minute irradiation at 340 nm) | photostability ([1]; solid, 60 minute irradiation at 340 nm) | solubility [2] | pKa [3] | solubility in water [4] | maximum plasma peak [5] |
| --- | --- | --- | --- | --- | --- | --- |
| Oc1ccc(/C=C/c2cc(O)cc(O)c2)cc1 [resveratrol, trans-resveratrol] | photo-instability | photo-degraded | 44 µg/mL (≈ 193 µM) | ~10 | about 30 mg/l |  |
| resveratrol-L-arginine salt |  |  |  |  |  | increased |
